# Experimental data reported in PubChem BioAssay (NCI).
#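 Exposure lasted 48 hours, with cells grown in 96-well plates and compounds tested at five concentrations. The concentration for 50% growth inhibition is given as GI50. TGI marks complete inhibition of growth.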
# Columns and labels:
# Test in all cases: DTP human tumour cell line panel, 48 h
# UACC-62 melanoma = system: UACC-62 melanoma
# SW-620 colon = system: SW-620 colon
# MALME-3M melanoma = system: MALME-3M melanoma
# MDA-MB-435 = system: MDA-MB-435
# SK-OV-3 ovarian = system: SK-OV-3 ovarian
# CCRF-CEM leukemia = system: CCRF-CEM leukemia
# M14 melanoma = system: M14 melanoma
# HT29 colon = system: HT29 colon
# MCF7 breast = system: MCF7 breast
# SF-295 CNS = system: SF-295 CNS
# BT-549 breast = system: BT-549 breast
# RXF 393 renal = system: RXF 393 renal
# UACC-257 melanoma = system: UACC-257 melanoma
# IGROV1 ovarian = system: IGROV1 ovarian
# A498 renal = system: A498 renal
# KM12 colon = system: KM12 colon
# MOLT-4 leukemia = system: MOLT-4 leukemia
# HL-60(TB) leukemia = system: HL-60(TB) leukemia
# SK-MEL-2 melanoma = system: SK-MEL-2 melanoma
# HCT-15 colon = system: HCT-15 colon
# OVCAR-3 ovarian = system: OVCAR-3 ovarian
# DU-145 prostate = system: DU-145 prostate
# PC-3 prostate = system: PC-3 prostate
# CAKI-1 renal = system: CAKI-1 renal
# ACHN renal = system: ACHN renal
# HCT-116 colon = system: HCT-116 colon
# NCI-H226 lung = system: NCI-H226 lung
# EKVX NSCLC = system: EKVX NSCLC
# SF-539 CNS = system: SF-539 CNS
# COLO 205 colon = system: COLO 205 colon
# 786-0 renal = system: 786-0 renal
# SNB-75 CNS = system: SNB-75 CNS
# LOX IMVI melanoma = system: LOX IMVI melanoma
# T-47D breast = system: T-47D breast
# OVCAR-8 ovarian = system: OVCAR-8 ovarian
# NCI/ADR-RES ovarian = system: NCI/ADR-RES ovarian
# HCC-2998 colon = system: HCC-2998 colon
# UO-31 renal = system: UO-31 renal
# K-562 leukemia = system: K-562 leukemia
# SF-268 CNS = system: SF-268 CNS
# SK-MEL-28 melanoma = system: SK-MEL-28 melanoma
# NCI-H460 lung = system: NCI-H460 lung
# TK-10 renal = system: TK-10 renal
# SNB-19 CNS = system: SNB-19 CNS
# A549 NSCLC = system: A549 NSCLC
# NCI-H23 lung = system: NCI-H23 lung
# SN12C renal = system: SN12C renal
# HOP-62 NSCLC = system: HOP-62 NSCLC
# U251 CNS = system: U251 CNS
# SK-MEL-5 melanoma = system: SK-MEL-5 melanoma
# HS 578T breast = system: HS 578T breast
# SR leukemia = system: SR leukemia
# RPMI-8226 leukemia = system: RPMI-8226 leukemia
# NCI-H522 lung = system: NCI-H522 lung
# OVCAR-4 ovarian = system: OVCAR-4 ovarian
# MDA-MB-231 breast = system: MDA-MB-231 breast
# OVCAR-5 ovarian = system: OVCAR-5 ovarian
smiles,measurement,setting,value
CN(C)c1ccc2nc3ccc(=[N+](C)C)cc-3oc2c1,GI50,UACC-62 melanoma,2.32 µM
same,TGI,UACC-62 melanoma,19.2 µM
same,GI50,SW-620 colon,1.74 µM
same,TGI,SW-620 colon,> 100 µM
same,GI50,MALME-3M melanoma,1.67 µM
same,TGI,MALME-3M melanoma,4.13 µM
same,GI50,MDA-MB-435,2.73 µM
same,TGI,MDA-MB-435,15.8 µM
same,GI50,SK-OV-3 ovarian,6.65 µM
same,TGI,SK-OV-3 ovarian,45.2 µM
same,GI50,CCRF-CEM leukemia,1.21 µM
same,TGI,CCRF-CEM leukemia,32.2 µM
same,GI50,M14 melanoma,0.959 µM
same,TGI,M14 melanoma,3.77 µM
same,GI50,HT29 colon,3.38 µM
same,TGI,HT29 colon,29.3 µM
same,GI50,MCF7 breast,0.368 µM
same,TGI,MCF7 breast,2.3 µM
same,GI50,SF-295 CNS,3.74 µM
same,TGI,SF-295 CNS,22.5 µM
same,GI50,BT-549 breast,11.2 µM
same,TGI,BT-549 breast,74.2 µM
same,GI50,RXF 393 renal,10.6 µM
same,TGI,RXF 393 renal,50.4 µM
same,GI50,UACC-257 melanoma,0.697 µM
same,TGI,UACC-257 melanoma,3.34 µM
same,GI50,IGROV1 ovarian,1.86 µM
same,TGI,IGROV1 ovarian,5.01 µM
same,GI50,A498 renal,13.7 µM
same,TGI,A498 renal,41.9 µM
same,GI50,KM12 colon,1.18 µM
same,TGI,KM12 colon,> 100 µM
same,GI50,MOLT-4 leukemia,1.76 µM
same,TGI,MOLT-4 leukemia,5.04 µM
same,GI50,HL-60(TB) leukemia,0.269 µM
same,TGI,HL-60(TB) leukemia,1.2 µM
same,GI50,SK-MEL-2 melanoma,2.38 µM
same,TGI,SK-MEL-2 melanoma,11.1 µM
same,GI50,HCT-15 colon,3.48 µM
same,TGI,HCT-15 colon,> 100 µM
same,GI50,OVCAR-3 ovarian,0.4 µM
same,TGI,OVCAR-3 ovarian,5.09 µM
same,GI50,DU-145 prostate,5.71 µM
same,TGI,DU-145 prostate,49.4 µM
same,GI50,PC-3 prostate,0.52 µM
same,TGI,PC-3 prostate,> 100 µM
same,GI50,CAKI-1 renal,5.92 µM
same,TGI,CAKI-1 renal,57.6 µM
same,GI50,ACHN renal,7.28 µM
same,TGI,ACHN renal,52.4 µM
same,GI50,HCT-116 colon,0.892 µM
same,TGI,HCT-116 colon,12.1 µM
same,GI50,NCI-H226 lung,2.1 µM
same,TGI,NCI-H226 lung,6.76 µM
same,GI50,EKVX NSCLC,0.636 µM
same,TGI,EKVX NSCLC,6.76 µM
same,GI50,SF-539 CNS,0.707 µM
same,TGI,SF-539 CNS,15.4 µM
same,GI50,COLO 205 colon,0.391 µM
same,TGI,COLO 205 colon,1.68 µM
same,GI50,786-0 renal,16.5 µM
same,TGI,786-0 renal,90.9 µM
same,GI50,SNB-75 CNS,2.63 µM
same,TGI,SNB-75 CNS,17.1 µM
same,GI50,LOX IMVI melanoma,2.32 µM
same,TGI,LOX IMVI melanoma,9.28 µM
same,GI50,T-47D breast,0.582 µM
same,TGI,T-47D breast,6.59 µM
same,GI50,OVCAR-8 ovarian,2.13 µM
same,TGI,OVCAR-8 ovarian,7.36 µM
same,GI50,NCI/ADR-RES ovarian,12.1 µM
same,TGI,NCI/ADR-RES ovarian,97.9 µM
same,GI50,HCC-2998 colon,3.56 µM
same,TGI,HCC-2998 colon,> 100 µM
same,GI50,UO-31 renal,12.8 µM
same,TGI,UO-31 renal,89.3 µM
same,GI50,K-562 leukemia,1.58 µM
same,TGI,K-562 leukemia,71.9 µM
same,GI50,SF-268 CNS,1.59 µM
same,TGI,SF-268 CNS,4.64 µM
same,GI50,SK-MEL-28 melanoma,5.72 µM
same,TGI,SK-MEL-28 melanoma,45.7 µM
same,GI50,NCI-H460 lung,2.82 µM
same,TGI,NCI-H460 lung,> 100 µM
same,GI50,TK-10 renal,17.2 µM
same,TGI,TK-10 renal,57.2 µM
same,GI50,SNB-19 CNS,2.49 µM
same,TGI,SNB-19 CNS,> 100 µM
same,GI50,A549 NSCLC,2.91 µM
same,TGI,A549 NSCLC,84.1 µM
same,GI50,NCI-H23 lung,0.788 µM
same,TGI,NCI-H23 lung,5.6 µM
same,GI50,SN12C renal,0.892 µM
same,TGI,SN12C renal,3.5 µM
same,GI50,HOP-62 NSCLC,3.58 µM
same,TGI,HOP-62 NSCLC,50.5 µM
same,GI50,U251 CNS,0.725 µM
same,TGI,U251 CNS,4.8 µM
same,GI50,SK-MEL-5 melanoma,0.47 µM
same,TGI,SK-MEL-5 melanoma,1.65 µM
same,GI50,HS 578T breast,15.8 µM
same,TGI,HS 578T breast,64 µM
same,GI50,SR leukemia,2.06 µM
same,TGI,SR leukemia,23.8 µM
same,GI50,RPMI-8226 leukemia,0.684 µM
same,TGI,RPMI-8226 leukemia,21 µM
Nc1ncnc2sc(=S)c3c(c12)CCC3,GI50,UACC-62 melanoma,27.8 µM
same,TGI,UACC-62 melanoma,85.2 µM
same,GI50,SW-620 colon,33.5 µM
same,TGI,SW-620 colon,> 100 µM
same,GI50,MALME-3M melanoma,66.4 µM
same,TGI,MALME-3M melanoma,> 100 µM
same,GI50,MDA-MB-435,46.9 µM
same,TGI,MDA-MB-435,> 100 µM
same,GI50,SK-OV-3 ovarian,89 µM
same,TGI,SK-OV-3 ovarian,> 100 µM
same,GI50,CCRF-CEM leukemia,27.1 µM
same,TGI,CCRF-CEM leukemia,79.5 µM
same,GI50,M14 melanoma,42.7 µM
same,TGI,M14 melanoma,> 100 µM
same,GI50,HT29 colon,29.8 µM
same,TGI,HT29 colon,62.8 µM
same,GI50,MCF7 breast,25.3 µM
same,TGI,MCF7 breast,92.8 µM
same,GI50,SF-295 CNS,39.6 µM
same,TGI,SF-295 CNS,> 100 µM
same,GI50,BT-549 breast,22.5 µM
same,TGI,BT-549 breast,68.2 µM
same,GI50,RXF 393 renal,26.9 µM
same,TGI,RXF 393 renal,55.1 µM
same,GI50,NCI-H522 lung,47.1 µM
same,TGI,NCI-H522 lung,> 100 µM
same,GI50,UACC-257 melanoma,> 100 µM
same,TGI,UACC-257 melanoma,> 100 µM
same,GI50,IGROV1 ovarian,50.5 µM
same,TGI,IGROV1 ovarian,> 100 µM
same,GI50,A498 renal,28.2 µM
same,TGI,A498 renal,79.5 µM
same,GI50,KM12 colon,40.7 µM
same,TGI,KM12 colon,> 100 µM
same,GI50,MOLT-4 leukemia,23.2 µM
same,TGI,MOLT-4 leukemia,69.7 µM
same,GI50,OVCAR-4 ovarian,69.8 µM
same,TGI,OVCAR-4 ovarian,> 100 µM
same,GI50,SK-MEL-2 melanoma,81.8 µM
same,TGI,SK-MEL-2 melanoma,> 100 µM
same,GI50,HCT-15 colon,38.2 µM
same,TGI,HCT-15 colon,> 100 µM
same,GI50,OVCAR-3 ovarian,30.7 µM
same,TGI,OVCAR-3 ovarian,> 100 µM
same,GI50,DU-145 prostate,19.1 µM
same,TGI,DU-145 prostate,57.4 µM
same,GI50,PC-3 prostate,32.1 µM
same,TGI,PC-3 prostate,> 100 µM
same,GI50,CAKI-1 renal,30.9 µM
same,TGI,CAKI-1 renal,> 100 µM
same,GI50,ACHN renal,26.3 µM
same,TGI,ACHN renal,> 100 µM
same,GI50,HCT-116 colon,31.8 µM
same,TGI,HCT-116 colon,> 100 µM
same,GI50,NCI-H226 lung,28.7 µM
same,TGI,NCI-H226 lung,> 100 µM
same,GI50,EKVX NSCLC,18.9 µM
same,TGI,EKVX NSCLC,58.8 µM
same,GI50,SF-539 CNS,17 µM
same,TGI,SF-539 CNS,52.8 µM
same,GI50,COLO 205 colon,25.1 µM
same,TGI,COLO 205 colon,62.6 µM
same,GI50,786-0 renal,46.6 µM
same,TGI,786-0 renal,> 100 µM
same,GI50,SNB-75 CNS,88.7 µM
same,TGI,SNB-75 CNS,> 100 µM
same,GI50,MDA-MB-231 breast,30.4 µM
same,TGI,MDA-MB-231 breast,> 100 µM
same,GI50,LOX IMVI melanoma,31.8 µM
same,TGI,LOX IMVI melanoma,> 100 µM
same,GI50,OVCAR-8 ovarian,37.7 µM
same,TGI,OVCAR-8 ovarian,> 100 µM
same,GI50,NCI/ADR-RES ovarian,30.1 µM
same,TGI,NCI/ADR-RES ovarian,> 100 µM
same,GI50,HCC-2998 colon,35 µM
same,TGI,HCC-2998 colon,> 100 µM
same,GI50,UO-31 renal,43.8 µM
same,TGI,UO-31 renal,> 100 µM
same,GI50,K-562 leukemia,36.1 µM
same,TGI,K-562 leukemia,> 100 µM
same,GI50,SF-268 CNS,26.9 µM
same,TGI,SF-268 CNS,75.6 µM
same,GI50,SK-MEL-28 melanoma,> 100 µM
same,TGI,SK-MEL-28 melanoma,> 100 µM
same,GI50,NCI-H460 lung,35.1 µM
same,TGI,NCI-H460 lung,> 100 µM
same,GI50,TK-10 renal,39.6 µM
same,TGI,TK-10 renal,> 100 µM
same,GI50,SNB-19 CNS,29.2 µM
same,TGI,SNB-19 CNS,82.9 µM
same,GI50,A549 NSCLC,44.8 µM
same,TGI,A549 NSCLC,> 100 µM
same,GI50,NCI-H23 lung,21.1 µM
same,TGI,NCI-H23 lung,56.8 µM
same,GI50,SN12C renal,32.8 µM
same,TGI,SN12C renal,> 100 µM
same,GI50,HOP-62 NSCLC,46.4 µM
same,TGI,HOP-62 NSCLC,> 100 µM
same,GI50,U251 CNS,45.8 µM
same,TGI,U251 CNS,> 100 µM
same,GI50,SK-MEL-5 melanoma,4.81 µM
same,TGI,SK-MEL-5 melanoma,29.8 µM
same,GI50,HS 578T breast,34.5 µM
same,TGI,HS 578T breast,99.7 µM
same,GI50,OVCAR-5 ovarian,42 µM
same,TGI,OVCAR-5 ovarian,> 100 µM
same,GI50,RPMI-8226 leukemia,16.8 µM
same,TGI,RPMI-8226 leukemia,55.3 µM
